Tested on: hepatocytes
Test: Seq-Well scRNA-Seq of hepatocytes after APAP overdose (signature scores, DEG vs untreated)
Format: in vivo, mouse
[1] = hepatocytes, cluster A48 (APAP) vs other treatment clusters
[2] = time point A6 vs untreated (UT)

## CC(=O)Nc1ccc(O)cc1 [APAP, acetaminophen]
[1]
  Rdh7 avg_logFC: 0.4684
  Reep6 avg_logFC: 0.6233
  Retsat avg_logFC: 0.7096
  Rgs16 avg_logFC: 0.4545
  Rpl38 avg_logFC: 0.3322
  Scand1 avg_logFC: 0.2707
  Serpina3m avg_logFC: 0.4034
  Serpina1d avg_logFC: 0.3053
  Serping1 avg_logFC: 0.5777
  Slc25a10 avg_logFC: 0.4313
  Slc25a20 avg_logFC: 0.3875
  Slc25a47 avg_logFC: 0.6175
  Slc27a5 avg_logFC: 0.4062
  Slc37a4 avg_logFC: 0.4461
  Slco1a4 avg_logFC: 0.5091
  Snord118 avg_logFC: 0.4771
  St3gal5 avg_logFC: 0.5549
  Sult1a1 avg_logFC: 0.4827
  Syvn1 avg_logFC: 0.3041
  Tcea3 avg_logFC: 0.3938
  Tef avg_logFC: 0.3394
  Tmbim4 avg_logFC: 0.3693
  Tmbim6 avg_logFC: 0.3713
  Ttc36 avg_logFC: 0.5638
  Ttpa avg_logFC: 0.4431
  Ttr avg_logFC: 0.4225
  Ugt2b5 avg_logFC: 0.4388
  Vnn3 avg_logFC: 0.3008
  Vtn avg_logFC: 0.5228
  Yipf3 avg_logFC: 0.2785
[2]
  avg_logFC 15-Sep: −0.4092
  avg_logFC 0610007P14Rik: −0.257
  avg_logFC 0610011F06Rik: −0.3037
  avg_logFC 1110008F13Rik: −0.3751
  avg_logFC 1110058L19Rik: −0.2581
  avg_logFC 1810022K09Rik: −0.3001
  avg_logFC 2010107E04Rik: −0.3182
  avg_logFC 3110043021Rik: 0.2694
  avg_logFC AA474408: 0.3471
  avg_logFC AW112010: −0.2981
  avg_logFC Aadat: −0.3186
  avg_logFC Abcc2: 0.2897
  avg_logFC Abcd3: −0.2718
  avg_logFC Abhd14b: −0.3937
  avg_logFC Acads: −0.3242
  avg_logFC Acbd5: −0.3952
  avg_logFC Acot13: −0.2886
  avg_logFC Actn4: 0.3124
  avg_logFC Adtrp: −0.3664
  avg_logFC Agpat2: −0.2982
  avg_logFC Ak2: −0.3451
  avg_logFC Akap11: 0.3464
  avg_logFC Akr1a1: −0.3269
  avg_logFC Akr1e1: −0.2582
  avg_logFC Amy1: −0.283
  avg_logFC Anapc13: −0.3642
  avg_logFC Ankrd11: 0.4156
  avg_logFC Anp32a: −0.317
  avg_logFC Anxa5: 0.3654
  avg_logFC Aox3: −0.3333
  avg_logFC Apc: 0.279
  avg_logFC Apcs: 0.2989
  avg_logFC Apom: −0.3024
  avg_logFC Aqp9: −0.3109
  avg_logFC Arl6ip1: −0.3649
  avg_logFC Atf4: 0.3411
  avg_logFC Atf6: 0.3778
  avg_logFC Atp1b1: 0.3702
  avg_logFC Atp2b1: 0.3321
  avg_logFC Atp5c1: −0.3476
  avg_logFC Atp5g3: −0.3002
  avg_logFC Atp5o: −0.3316
  avg_logFC BC005537: 0.3543
  avg_logFC Baat: −0.3086
  avg_logFC Baz1a: 0.2596
  avg_logFC Bckdha: −0.35
  avg_logFC Bet1: −0.2966
  avg_logFC Bhmt2: −0.3114
  avg_logFC Bnip3: −0.3362
  avg_logFC Bola3: −0.3689
  avg_logFC Bptf: 0.3245
  avg_logFC Bsg: −0.3152
  avg_logFC Bst2: −0.3156
  avg_logFC C8b: −0.3159
  avg_logFC C130074G19Rik: −0.3563
  avg_logFC Car5a: −0.3088
  avg_logFC Cars: 0.3158
  avg_logFC Cast: 0.4009
  avg_logFC Cebpb: −0.3617
  avg_logFC Cela1: −0.2723
  avg_logFC Cep85l: 0.2779
  avg_logFC Ces1f: −0.3126
  avg_logFC Cfhr1: −0.3253
  avg_logFC Chmp4b: 0.3002
  avg_logFC Chuk: 0.3724
  avg_logFC Cideb: −0.3684
  avg_logFC Cisd1: −0.3727
  avg_logFC Cldn2: −0.2511
  avg_logFC Cldn3: −0.3145
  avg_logFC Cnpy2: −0.3729
  avg_logFC Coq9: −0.3479
  avg_logFC Coro1c: 0.3067
  avg_logFC Cox6b1: −0.362
  avg_logFC Cox8a: −0.3993
  avg_logFC Cpb2: −0.3215
  avg_logFC Cpt1a: 0.2611
  avg_logFC Csde1: 0.3156
  avg_logFC Csrp3: −0.294
  avg_logFC Ctsc: 0.361
  avg_logFC Cxcl1: 0.3701
  avg_logFC Cybb: 0.3778
  avg_logFC Cyp4f14: −0.2959
  avg_logFC Cyp4f15: −0.2998
  avg_logFC Cyp27a1: −0.3735
  avg_logFC D10Jhu81e: −0.3957
  avg_logFC D17Wsu92e: 0.2525
  avg_logFC Ddah1: −0.312
  avg_logFC Ddx3y: 0.3395
  avg_logFC Derl2: −0.3317
  avg_logFC Dgat2: −0.3433
  avg_logFC Dhdh: −0.3348
  avg_logFC Dhrs4: −0.3321
  avg_logFC Dhx9: 0.3504
  avg_logFC Dnaja2: 0.3723
  avg_logFC Dnajc5: 0.3265
  avg_logFC Dnajc19: −0.316
  avg_logFC Dync1h1: 0.3796
  avg_logFC Dync1li1: 0.2624
  avg_logFC Ebp: −0.3553
  avg_logFC Echs1: −0.3316
  avg_logFC Edf1: −0.3817
  avg_logFC Eef1a1: 0.2826
  avg_logFC Eif3c: 0.302
  avg_logFC Eif4b: 0.3682
  avg_logFC Eprs: 0.3701
  avg_logFC Erbb2ip: 0.3332
  avg_logFC Esd: −0.2808
  avg_logFC Ethe1: −0.3334
  avg_logFC Etnk1: 0.316
  avg_logFC F10: −0.2719
  avg_logFC Fah: −0.2593
  avg_logFC Fam25c: −0.2977
  avg_logFC Fam214a: −0.2658
  avg_logFC Fbxo21: −0.2631
  avg_logFC Fcna: 0.3774
  avg_logFC Fdps: −0.2663
  avg_logFC Fkbp4: −0.3534
  avg_logFC Fus: 0.3393
  avg_logFC Gadd45g: −0.3554
  avg_logFC Gadd45gip1: −0.3041
  avg_logFC Gcdh: −0.3003
  avg_logFC Ghr: −0.3648
  avg_logFC Gjb1: −0.3166
  avg_logFC Glyctk: −0.2977
  avg_logFC Gm2788: −0.2831
  avg_logFC Gm4951: −0.3221
  avg_logFC Gm10800: 0.5626
  avg_logFC Gm24245: 0.5465
  avg_logFC Grhpr: −0.3531
  avg_logFC Gsr: 0.4128
  avg_logFC Gstm4: −0.3809
  avg_logFC Gyk: 0.3684
  avg_logFC Hibch: −0.3271
  avg_logFC Hipk3: 0.3394
  avg_logFC Hist1h1c: −0.3009
  avg_logFC Hmgcs1: −0.3491
  avg_logFC Hsd17b10: −0.3772
  avg_logFC Hsp90b1: −0.2615
  avg_logFC Hspa5: 0.2682
  avg_logFC Huwe1: 0.3879
  avg_logFC Ifrd1: 0.4904
  avg_logFC Il6ra: 0.3044
  avg_logFC Ipo5: 0.2687
  avg_logFC Ipo7: 0.3246
  avg_logFC Ivns1abp: 0.3566
  avg_logFC Jhdm1d: 0.3041
  avg_logFC Kif21a: 0.4042
  avg_logFC Lap3: −0.3644
  avg_logFC Larp4b: 0.3421
  avg_logFC Lcp1: 0.484
  avg_logFC Lrrfip2: 0.3731
  avg_logFC Lsmd1: −0.3131
  avg_logFC Macf1: 0.4042
  avg_logFC Mak16: 0.3171
  avg_logFC Map3k5: 0.3347
  avg_logFC Mbl2: −0.3465
  avg_logFC Mcee: −0.3199
  avg_logFC Mdh1: −0.3077
  avg_logFC Mdm2: 0.3283
  avg_logFC Metap2: 0.3686
  avg_logFC Mettl7a1: −0.3221
  avg_logFC Mien1: −0.3704
  avg_logFC Mki67ip: 0.3184
  avg_logFC Mocs2: −0.3467
  avg_logFC Mpc1: −0.2802
  avg_logFC Mrc1: 0.3404
  avg_logFC Mrp133: −0.2654
  avg_logFC Mrpl11: −0.2685
  avg_logFC Mrpl12: −0.3082
  avg_logFC Mrpl15: −0.2912
  avg_logFC Mrpl34: −0.2838
  avg_logFC Mrpl41: −0.2674
